Earlier results in US5574070A, “Substituted guanidines having high binding to the sigma receptor and the use thereof” (priority 1993, dated 1996).

Assays:
anxiety = conditions: in vivo; cited from earlier work
dopamine synthesis = conditions: cited from earlier work
[1] = tested on: apomorphine-induced mesolimbic behaviors; conditions: without altering the intensity of stereotypic behaviors; cited from earlier work
[2] = tested on: dopamine-stimulated production of cAMP; conditions: homogenates of rat striatum and olfactory tubercle; cited from earlier work

C[C@@H]1CN(CCCn2c3ccccc3c3ccccc32)C[C@H](C)N1.Cl.Cl [rimcazole, cis-9-[3-(3,5-dimethyl-1-piperazinyl)propyl]carbazole dihydrochloride]
anxiolytic activity (anxiety): determined to have anxiolytic activity | effect on rate of dopamine synthesis (dopamine synthesis): does not accelerate the rate of dopamine synthesis | antagonism of apomorphine-induced mesolimbic behaviors [1]: ability to antagonize apomorphine-induced mesolimbic behaviors selectively | effect on dopamine-stimulated cAMP [2]: does not affect dopamine-stimulated production of cAMP
